Values of other authors in PMC7984154 (Chemmedchem, 2020).

Legend:
[1] = steady state, oral dose of 5 mg
FAP = details: cancer indications, also in combination with other chemotherapies

Row | Structure (SMILES) | maximal plasma concentrations (single dose 600 mg) | highest tolerable dose (single rising dose studies) | clinical maximum plasma concentration [1] | efficacy in the clinical setting (FAP)
1 | CC#CCn1c(N2CCC[C@@H](N)C2)nc2c1c(=O)n(Cc1nc(C)c3ccccc3n1)c(=O)n2C [linagliptin] | ~4 µM | 600 mg | 12 nM | –
2 | CC(C)[C@H](N)C(=O)N1CCC[C@H]1B(O)O [PT100, talabostat] | – | – | – | minimal efficacy
